# Measurements taken from publication PMC6022752 (Journal of the American Chemical Society, 2018).
# Experiments:
# EGFR (L858R, T790M) = EGFR (L858R, T790M) (Homo sapiens, UniProt P00533, L858R/T790M); assay: HotSpot 10-dose dose-response kinase assay: EGFR; type: biochemical; details: read-out: Dose-response IC50 EGFR (L858R, T790M); 10-dose dose-response, 1 μM ATP
# TYK2 = TYK2 (Homo sapiens, UniProt P29597); assay: 369-kinase HotSpot kinome screen: TYK2; type: biochemical; details: read-out: Tyk2 inhibition, from kinome screen
# PDGFRa = PDGFRa (Homo sapiens, UniProt P16234); assay: HotSpot 10-dose dose-response kinase assay: PDGFRa; type: biochemical; details: read-out: Dose-response IC50 PDGFRa; 10-dose dose-response, 1 μM ATP
# JAK3 = JAK3 (Homo sapiens, UniProt P52333); assay: HotSpot 10-dose dose-response kinase assay: JAK3; type: biochemical; details: read-out: Dose-response IC50 JAK3; 10-dose dose-response, 1 μM ATP
# JAK2 = JAK2 (Homo sapiens, UniProt O60674); assay: HotSpot 10-dose dose-response kinase assay: JAK2; type: biochemical; details: read-out: Dose-response IC50 JAK2; 10-dose dose-response, 1 μM ATP
# PKCepsilon = PKCepsilon (Homo sapiens, UniProt Q02156); assay: HotSpot 10-dose dose-response kinase assay: PKCepsilon; type: biochemical; details: read-out: Dose-response IC50 PKCepsilon; 10-dose dose-response, 1 μM ATP
# DDR2 = DDR2 (Homo sapiens, UniProt Q16832); assay: HotSpot 10-dose dose-response kinase assay: DDR2; type: biochemical; details: read-out: Dose-response IC50 DDR2; 10-dose dose-response, 1 μM ATP
# JAK1 = JAK1 (Homo sapiens, UniProt P23458); assay: HotSpot 10-dose dose-response kinase assay: JAK1; type: biochemical; details: read-out: Dose-response IC50 JAK1; 10-dose dose-response, 1 μM ATP
# ABL1 = ABL1 (Homo sapiens, UniProt P00519); assay: HotSpot 10-dose dose-response kinase assay: ABL1; type: biochemical; details: read-out: Dose-response IC50 ABL1; 10-dose dose-response, 1 μM ATP
# RET = RET (Homo sapiens, UniProt P07949); assay: HotSpot 10-dose dose-response kinase assay: RET; type: biochemical; details: read-out: Dose-response IC50 RET; 10-dose dose-response, 1 μM ATP
# EGFR (T790M) = EGFR (T790M) (Homo sapiens, UniProt P00533, T790M); assay: HotSpot 10-dose dose-response kinase assay: EGFR; type: biochemical; details: read-out: Dose-response IC50 EGFR (T790M); 10-dose dose-response, 1 μM ATP
# EGFR (L858R) = EGFR (L858R) (Homo sapiens, UniProt P00533, L858R); assay: HotSpot 10-dose dose-response kinase assay: EGFR; type: biochemical; details: read-out: Dose-response IC50 EGFR (L858R); 10-dose dose-response, 1 μM ATP
# EGFR (G719S) = EGFR (G719S) (Homo sapiens, UniProt P00533, G719S); assay: HotSpot 10-dose dose-response kinase assay: EGFR; type: biochemical; details: read-out: Dose-response IC50 EGFR (G719S); 10-dose dose-response, 1 μM ATP
# EGFR (d746–750) = EGFR (d746–750) (Homo sapiens, UniProt P00533, DEL746-750); assay: HotSpot 10-dose dose-response kinase assay: EGFR; type: biochemical; details: read-out: Dose-response IC50 EGFR (d746–750); 10-dose dose-response, 1 μM ATP
# BRAF = BRAF (Homo sapiens, UniProt P15056); assay: HotSpot 10-dose dose-response kinase assay: BRAF; type: biochemical; details: read-out: Dose-response IC50 BRAF; 10-dose dose-response, 1 μM ATP
# BRAF (V599E) = BRAF (V599E) (Homo sapiens, UniProt P15056, V600E); assay: HotSpot 10-dose dose-response kinase assay: BRAF; type: biochemical; details: read-out: Dose-response IC50 BRAF (V599E); 10-dose dose-response, 1 μM ATP
# ANT = details: read-out: IC50 ANT inhibition; cited from earlier work
# [1] = system: MCF-7, SW620, SW480, H460, A549, and MDA-MB-231 cell lines; assay: GGOH rescue of cell growth inhibition; type: cell-based; details: six cell lines, 20 μM GGOH
# EGFR = EGFR (Homo sapiens, UniProt P00533); assay: EGFR wild type kinase-domain inhibition assay
# kinases = assay: Other kinase assays; type: biochemical; details: Figures S10 and S11
# [2] = cited from earlier work
# TYK2, sequence (P29597 whole entry): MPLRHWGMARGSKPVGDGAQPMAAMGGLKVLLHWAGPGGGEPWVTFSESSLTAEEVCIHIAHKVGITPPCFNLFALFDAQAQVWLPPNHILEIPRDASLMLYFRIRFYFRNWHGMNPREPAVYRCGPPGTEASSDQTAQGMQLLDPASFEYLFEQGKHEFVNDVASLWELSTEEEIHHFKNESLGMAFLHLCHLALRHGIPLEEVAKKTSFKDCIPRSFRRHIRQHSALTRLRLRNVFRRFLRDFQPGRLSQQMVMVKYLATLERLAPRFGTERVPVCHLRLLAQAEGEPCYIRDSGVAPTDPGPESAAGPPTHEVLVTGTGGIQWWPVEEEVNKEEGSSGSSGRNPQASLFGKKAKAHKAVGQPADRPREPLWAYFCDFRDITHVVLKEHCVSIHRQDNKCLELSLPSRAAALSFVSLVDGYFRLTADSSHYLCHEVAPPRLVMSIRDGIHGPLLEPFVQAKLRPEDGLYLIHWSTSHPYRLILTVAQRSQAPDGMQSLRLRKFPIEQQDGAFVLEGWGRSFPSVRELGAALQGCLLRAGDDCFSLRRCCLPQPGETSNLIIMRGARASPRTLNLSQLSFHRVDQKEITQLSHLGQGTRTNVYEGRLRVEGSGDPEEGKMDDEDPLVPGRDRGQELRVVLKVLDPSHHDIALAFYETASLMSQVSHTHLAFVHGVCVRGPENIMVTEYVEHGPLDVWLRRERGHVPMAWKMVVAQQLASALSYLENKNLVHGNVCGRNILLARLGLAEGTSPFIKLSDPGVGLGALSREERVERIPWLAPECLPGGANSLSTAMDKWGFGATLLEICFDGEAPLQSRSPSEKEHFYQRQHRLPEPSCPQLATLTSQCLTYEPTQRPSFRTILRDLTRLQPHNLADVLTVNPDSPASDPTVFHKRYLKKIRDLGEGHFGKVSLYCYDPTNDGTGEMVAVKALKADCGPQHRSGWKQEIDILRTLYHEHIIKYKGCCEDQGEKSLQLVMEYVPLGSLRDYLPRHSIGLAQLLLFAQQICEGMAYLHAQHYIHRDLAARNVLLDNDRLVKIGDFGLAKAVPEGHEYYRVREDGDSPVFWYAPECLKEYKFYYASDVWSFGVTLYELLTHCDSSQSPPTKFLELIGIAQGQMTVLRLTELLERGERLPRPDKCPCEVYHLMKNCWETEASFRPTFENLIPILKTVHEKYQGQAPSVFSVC
# PDGFRa, sequence (P16234 24-1089): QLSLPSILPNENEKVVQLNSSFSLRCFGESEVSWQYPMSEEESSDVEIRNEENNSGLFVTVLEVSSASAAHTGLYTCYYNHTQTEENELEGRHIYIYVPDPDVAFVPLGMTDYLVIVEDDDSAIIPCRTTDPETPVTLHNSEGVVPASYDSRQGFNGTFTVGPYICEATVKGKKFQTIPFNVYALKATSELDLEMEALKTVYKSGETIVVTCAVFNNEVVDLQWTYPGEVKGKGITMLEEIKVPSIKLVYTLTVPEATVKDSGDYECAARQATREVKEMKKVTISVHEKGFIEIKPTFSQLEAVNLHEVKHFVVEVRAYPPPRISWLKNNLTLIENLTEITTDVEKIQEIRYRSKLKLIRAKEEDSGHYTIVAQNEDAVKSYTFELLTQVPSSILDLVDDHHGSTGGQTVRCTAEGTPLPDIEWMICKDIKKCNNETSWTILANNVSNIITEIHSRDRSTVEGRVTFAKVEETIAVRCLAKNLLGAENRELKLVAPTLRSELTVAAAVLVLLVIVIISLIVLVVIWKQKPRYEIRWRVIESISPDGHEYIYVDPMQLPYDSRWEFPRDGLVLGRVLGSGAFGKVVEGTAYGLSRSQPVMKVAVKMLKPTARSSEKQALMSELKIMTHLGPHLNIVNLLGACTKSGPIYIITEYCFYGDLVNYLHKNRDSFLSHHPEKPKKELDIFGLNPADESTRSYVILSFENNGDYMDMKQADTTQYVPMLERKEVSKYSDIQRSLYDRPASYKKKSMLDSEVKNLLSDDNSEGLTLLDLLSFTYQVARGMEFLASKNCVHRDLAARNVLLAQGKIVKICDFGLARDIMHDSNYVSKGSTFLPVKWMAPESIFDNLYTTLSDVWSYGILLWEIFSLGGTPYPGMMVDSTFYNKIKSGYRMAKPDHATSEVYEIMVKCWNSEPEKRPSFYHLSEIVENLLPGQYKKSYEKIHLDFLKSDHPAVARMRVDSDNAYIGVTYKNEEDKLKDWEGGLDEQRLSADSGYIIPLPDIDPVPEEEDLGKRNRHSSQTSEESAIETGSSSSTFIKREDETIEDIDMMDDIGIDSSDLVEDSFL
# RET, sequence (P07949 29-1114): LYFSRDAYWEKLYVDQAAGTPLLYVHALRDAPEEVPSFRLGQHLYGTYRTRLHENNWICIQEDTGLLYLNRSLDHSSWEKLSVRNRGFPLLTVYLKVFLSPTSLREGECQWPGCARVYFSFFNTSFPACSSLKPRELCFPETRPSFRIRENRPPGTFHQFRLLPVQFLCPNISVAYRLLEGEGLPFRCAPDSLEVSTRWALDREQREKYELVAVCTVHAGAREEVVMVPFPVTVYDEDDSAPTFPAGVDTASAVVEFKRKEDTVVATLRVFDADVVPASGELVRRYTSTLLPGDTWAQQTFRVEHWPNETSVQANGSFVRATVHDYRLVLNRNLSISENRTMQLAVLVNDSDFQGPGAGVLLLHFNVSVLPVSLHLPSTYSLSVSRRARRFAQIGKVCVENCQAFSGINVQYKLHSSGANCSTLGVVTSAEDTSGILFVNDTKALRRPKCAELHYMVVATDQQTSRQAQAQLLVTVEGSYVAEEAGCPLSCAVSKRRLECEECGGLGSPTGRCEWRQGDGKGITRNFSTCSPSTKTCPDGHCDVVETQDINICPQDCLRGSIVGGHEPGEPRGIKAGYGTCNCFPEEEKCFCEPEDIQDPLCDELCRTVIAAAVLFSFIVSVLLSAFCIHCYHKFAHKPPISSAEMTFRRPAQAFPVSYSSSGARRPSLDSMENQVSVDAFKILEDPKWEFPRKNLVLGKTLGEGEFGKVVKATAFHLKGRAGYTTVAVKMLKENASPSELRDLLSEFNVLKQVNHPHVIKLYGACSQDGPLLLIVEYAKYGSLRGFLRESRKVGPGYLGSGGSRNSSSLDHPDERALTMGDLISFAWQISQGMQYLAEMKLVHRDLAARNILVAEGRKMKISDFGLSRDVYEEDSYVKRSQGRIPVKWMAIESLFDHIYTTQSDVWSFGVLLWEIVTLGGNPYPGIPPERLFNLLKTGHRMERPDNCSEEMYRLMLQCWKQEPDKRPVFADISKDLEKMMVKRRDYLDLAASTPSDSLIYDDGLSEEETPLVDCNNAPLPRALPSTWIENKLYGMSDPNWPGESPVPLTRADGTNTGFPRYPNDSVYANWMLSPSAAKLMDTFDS
# JAK3, sequence (P52333 whole entry): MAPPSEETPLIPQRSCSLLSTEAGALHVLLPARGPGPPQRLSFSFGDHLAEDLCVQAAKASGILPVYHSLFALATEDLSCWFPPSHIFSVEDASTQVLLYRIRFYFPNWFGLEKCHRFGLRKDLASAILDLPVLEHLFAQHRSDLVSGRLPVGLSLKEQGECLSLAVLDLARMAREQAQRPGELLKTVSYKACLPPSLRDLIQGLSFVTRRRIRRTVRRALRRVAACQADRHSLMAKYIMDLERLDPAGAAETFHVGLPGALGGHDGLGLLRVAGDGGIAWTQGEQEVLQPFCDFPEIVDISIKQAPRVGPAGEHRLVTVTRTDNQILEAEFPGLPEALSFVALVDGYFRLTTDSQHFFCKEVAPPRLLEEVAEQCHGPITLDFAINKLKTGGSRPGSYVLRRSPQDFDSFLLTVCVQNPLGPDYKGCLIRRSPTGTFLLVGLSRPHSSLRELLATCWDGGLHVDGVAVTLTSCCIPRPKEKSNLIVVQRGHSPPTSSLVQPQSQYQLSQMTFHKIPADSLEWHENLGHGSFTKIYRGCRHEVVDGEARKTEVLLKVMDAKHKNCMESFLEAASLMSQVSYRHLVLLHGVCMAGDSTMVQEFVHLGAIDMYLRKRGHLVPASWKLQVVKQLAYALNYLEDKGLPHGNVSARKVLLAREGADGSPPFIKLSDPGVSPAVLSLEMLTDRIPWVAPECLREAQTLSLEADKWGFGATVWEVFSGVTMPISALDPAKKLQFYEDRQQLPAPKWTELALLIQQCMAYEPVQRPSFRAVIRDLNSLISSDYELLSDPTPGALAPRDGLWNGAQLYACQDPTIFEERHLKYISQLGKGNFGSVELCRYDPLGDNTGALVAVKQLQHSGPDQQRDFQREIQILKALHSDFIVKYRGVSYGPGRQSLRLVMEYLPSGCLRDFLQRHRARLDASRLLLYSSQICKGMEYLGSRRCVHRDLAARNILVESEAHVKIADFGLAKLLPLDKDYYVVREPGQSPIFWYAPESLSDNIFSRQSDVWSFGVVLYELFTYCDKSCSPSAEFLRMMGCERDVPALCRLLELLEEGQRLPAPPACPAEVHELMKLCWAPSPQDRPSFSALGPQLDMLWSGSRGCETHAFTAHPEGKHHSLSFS
# BRAF (V599E), sequence (P15056 416-766 V600E limits assumed): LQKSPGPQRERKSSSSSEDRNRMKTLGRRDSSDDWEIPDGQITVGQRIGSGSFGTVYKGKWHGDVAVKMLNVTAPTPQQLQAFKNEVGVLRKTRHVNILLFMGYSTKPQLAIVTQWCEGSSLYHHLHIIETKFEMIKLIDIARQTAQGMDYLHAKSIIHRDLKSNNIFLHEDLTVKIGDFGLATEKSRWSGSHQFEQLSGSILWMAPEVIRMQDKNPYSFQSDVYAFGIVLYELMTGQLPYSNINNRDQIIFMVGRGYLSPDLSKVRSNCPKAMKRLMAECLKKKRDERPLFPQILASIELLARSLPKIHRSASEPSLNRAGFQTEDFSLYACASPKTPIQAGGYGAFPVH
smiles,measurement,setting,value
Nc1ncnc2c1ncn2[C@@H]1O[C@H](COP(=O)(O)OP(=O)(O)C(Br)(Br)P(=O)(O)O)[C@@H](O)[C@H]1O [compound 23],IC50,"EGFR (L858R, T790M)",16 nM
"Nc1ncnc2c1ncn2[C@@H]1O[C@H](COP(=O)(O)OP(=O)(O)C(Cl)(Cl)P(=O)(O)O)[C@@H](O)[C@H]1O [compound 4, adenosine 5′-(beta, gamma-dichloro-methylene) diphosphate]",IC50,TYK2,~230 nM
same,IC50,PDGFRa,4 nM
same,IC50,JAK3,5 nM
same,IC50,JAK2,13 nM
same,IC50,PKCepsilon,43 nM
same,IC50,DDR2,47 nM
same,IC50,JAK1,66 nM
same,IC50,ABL1,79 nM
same,IC50,"EGFR (L858R, T790M)",80 nM
same,IC50,RET,140 nM
same,IC50,EGFR (T790M),270 nM
same,IC50,EGFR (L858R),490 nM
same,IC50,EGFR (G719S),760 nM
same,IC50,EGFR (d746–750),4300 nM
same,IC50,BRAF,6400 nM
same,IC50,BRAF (V599E),230000 nM
same,IC50,ANT,~50000 nM
NCCC(O)(P(=O)(O)O)P(=O)(O)O [pamidronate],GGOH rescue of growth inhibition,[1],very small rescue effects
"O=P(O)(O)C(O)(Cn1ccnc1)P(=O)(O)O [compound 6, zoledronate]",IC50,EGFR,72000 ± 12000 nM
Nc1ncnc2c1ncn2C1OC(COP(=O)(O)OP(=O)(O)C(Sc2ccc(Cl)cc2)P(=O)(O)O)C(O)C1O (stereo not shown) [compound 5],activity in other kinase assays,kinases,low activity
Nc1ncnc2c1ncn2[C@@H]1O[C@H](COP(=O)(O)OP(=O)(O)OP(=O)(O)O)[C@@H](O)[C@H]1O [ATP],pKa4,[2],7.1
